Experimental data taken from patent publication US20160361398A1, “METHOD FOR THE TREATMENT OF MULTIPLE SCLEROSIS” (Vereniging voor Christelijk Wetenschappe Onderwijs, priority 2015, published 2016).
No end group written: not given here.

Columns and labels:
[1] = system: naive OVA-specific CD4+ T cells (OT-II); assay: Antigen specificity: loaded DCs challenged with OVA, co-cultured with OT-II cells, Foxp3+ CD4+ by flow cytometry; assay type: cell-based, mouse; conditions: for tolerogenic cells (Foxp3+ CD4+ T cells) in a population of OT-II cells: loaded DCs subsequently challenged with OVA
Experimental: (§1) For that purpose, dendritic cells were loaded with sia-OVA and subsequently challenged in the presence of specific CD4+ T cells with either OVA or with a myelin oligodendrocyte glycoprotein peptide (MOG 35-55).
(§2) The thus-loaded dendritic cells were then co-cultured with naive MOG-specific CD4+ T cells (called 2D2) in the presence of MOG 35-55 or with naive OVA-specific CD4+ T cells (called OT-II) in the presence of ovalbumin (OVA).
(§3) Subsequently, it was determined whether sia-OVA-loaded dendritic cells were able to induce tolerogenic T cells in an antigen-specific manner. This was done by determining the percentage of Foxp3+ CD4+ T cells by flow cytometry.

[2] = system: MOG-responsive CD4+ T cells (2D2 T cells); assay: T helper differentiation: antigen-pulsed DCs co-cultured with naive 2D2 CD4+ T cells, intracellular staining for Foxp3 and IFN-γ; assay type: cell-based, mouse; conditions: cultured six days with 2D2 T cells; for induction of suppressive Foxp3+CD4+ T cells: FIG. 1A; for CD4+ IFN-γ+ MOG effector T cells: FIG. 1B
Text: For that purpose, DC were pulsed with α-2-6-Sia-MOG35-55 and a non-sialylated MOG 35-55 peptide as a control, and cultured for six days with MOG-responsive CD4^+ T cells (2D2 T cells (Bettelli et al., J. Exp. Med., 2003).
(§4) Antigen-specific nave CD4+CD62LhiCD25− T cells were purified from spleen and LN cell suspensions obtained from 2D2 mice using the Dynal mouse CD4+ CD62L+ T cell isolation kit II mouse (Miltenyi Biotec, Bergisch Gladbach, Germany) or by sorting on a MoFlo (DakoCytomation, Glostrup, Denmark). The resulting naïve CD4+ CD62L+CD25− T cell populations were typically 95% pure as assessed by flow cytometry. Naïve CD4+ T cells (5×10^4) were added to wells containing DCs (1×10^4) that were pulsed with indicated concentrations of antigen modified with a sialylated oligosaccharide or native antigen 3 hours prior. After 2 days, 10 U/ml recombinant mouse IL-2 (Invitrogen, Bleijswijk, The Netherlands) was added. T-cell polarization was evaluated on day 6 by intra-cellular staining for Foxp3 and IFN-γ following 5 hours restimulation with phorbol 12-myristate 13-acetate (PMA; […])/ionomycin (Sigma; 500 ng/ml) in the presence of Brefeldin A (Sigma; 5 μg/ml). For inhibition of effector Th1 and Th17 cells, Naïve 2D2 T cells were converted in Th1 or Th17 cells by culturing; one week later, effector T cells re-stimulated with DC pulsed with MOG or Sialylated MOG. After 24 hours, the supernatant was harvested for presence of IFN-γ or IL 17 as measure of activity of Th1 and Th17 effector cells, respectively.

[3] = system: MOG-specific CD4+ (2D2) T-cells; assay: IFN-γ in culture supernatants of DC / 2D2 T-cell co-cultures; assay type: cell-based, mouse; conditions: 2D2 T cells primed by antigen-loaded DCs; FIG. 1C
Experimental: as §4, with “For inhibition of effector Th1 and Th17 cells, Naïve 2D2 T cells were converted in Th1 or Th17 cells by culturing; one week later, effector T cells re-stimulated with DC pulsed with MOG or Sialylated MOG. After 24 hours, the supernatant was harvested for presence of IFN-γ or IL 17 as measure of activity of Th1 and Th17 effector cells, respectively.” left out
(§5) Cytokine production by T cells and DCs was assessed by cytometric bead arrays using the CBA Th1/2/17 kit and mouse inflammation kit, respectively (BD Biosciences), or by ELISA using specific antibody pairs (eBiosciences) following the manufacturers' instructions.

[4] = system: MOG-specific CD4+ T cells; assay: qRT-PCR of MOG-specific CD4+ T cells isolated on day 6 of co-culture with pulsed DCs; assay type: cell-based, mouse; conditions: for Foxp3 mRNA level (qRT-PCR, normalized to GAPDH): FIG. 1D right panel
Experimental: FIG. 1D: (Left panel) Expression of T-bet, which is a measure for IFN-γ-producing effector CD4 T cells (Th1). (Right panel) Foxp3 mRNA, which is a measure for Treg cells that suppress, were determined using qRT-PCR and subsequently normalized to housekeeping gene GAPDH, which is equal under all conditions.

[5] = system: Th1 and Th17 cells generated from 2D2 CD4 T cells; assay: Inhibition of effector Th1 and Th17 cells generated from 2D2 T cells, re-stimulated with pulsed DCs; assay type: cell-based, mouse; conditions: supernatant after 24 hours; for secretion of effector cytokine by Th1 cells (IFN-gamma): FIG. 1E left panel; for secretion of effector cytokine by Th17 cells (IL-17): FIG. 1E right panel
Text: As stated hereinbefore, Th1 and Th17 are the effector CD4T cells that cause inflammation in MS. […] This was not observed when these effector cells were co-cultured with DCs loaded with non-sialylated MOG 35-55 (FIG. 1E). Thus, it was concluded that T cells generated in the presence of DCs exposed to α-2,6-Sia-MOG35-55, indeed were functional in that they were able to suppress MOG-specific effector T cells and, therefore, able to dampen ongoing inflammation. It follows that the disclosure may be applied for treating ongoing inflammation, such as the inflammation observed in MS patients, when, at the peak of the disease, auto-reactive, myelin-specific CD4^+ and CD8^+ T cells are involved in the demyelination of the neurons.
as §4

[6] = system: MOG-specific effector CD4 T cells from EAE splenocytes; assay: EAE splenocytes re-stimulated ex vivo with antigen-loaded DCs: [3H]thymidine incorporation; assay type: cell-based, mouse; conditions: after 4 days of culture; EAE scores 1, 2 and 3; FIG. 1F
Experimental: To examine this even further, testing was performed to determine whether DCs exposed to α-2,6-Sia-MOG35-55 were able to inhibit MOG-specific effector T cells that were obtained from splenocytes from mice suffering from experimental autoimmune encephalomyelitis (EAE). To this effect, CD4 effector T cells were harvested from splenocytes of mice at various EAE clinical scores, representing different stages of effector T cell number and activity, wherein score 1 is the onset of disease and score 2 and 3 are the more severe phases of the disease.
Testing was performed to determine whether DCs ex vivo loaded with Sia-MOG could inhibit the proliferation of the MOG-specific effector CD4 T cells that were obtained from EAE mice.
DCs loaded with α-2-6-Sia-MOG35-55 or non-sialylated MOG35-55 were cultured with EAE splenocytes and, after 4 days of culture, [3H]thymidine incorporation was determined as a measure of proliferation and division of CD4 T cells (FIG. 1 F).
(§6) Splenocytes from mice that suffered EAE were re-stimulated ex-vivo with DCs loaded with either non-sialylated MOG or α-2-6-Sia-MOG35-55 and as a control, DC with no antigen. DC and T cells were cultured as described in Example 2, as described above, for 4 days. 3H and IFN-γ was determined as described above.

[7] = system: MOG-reactive effector T cells from EAE mice; assay: EAE splenocytes re-stimulated ex vivo with antigen-loaded DCs: IFN-γ production; assay type: cell-based, mouse; conditions: 4 days of culture; EAE mice with different scoring; FIG. 1G
Experimental: To determine the functionality of the MOG-reactive effector cells, IFN-γ production was measured (FIG. 1G).
as §6, §5

[8] = system: experimental autoimmune encephalomyelitis; conditions: intravenous administration; cited from earlier work
[9] = system: naive MOG-specific CD4+ T cells (2D2); assay: Antigen specificity: sia-OVA-loaded DCs challenged with MOG 35-55, co-cultured with 2D2 cells, Foxp3+ CD4+ by flow cytometry; assay type: cell-based, mouse; conditions: loaded DCs subsequently challenged with MOG 35-55
Experimental: as §1, §2, §3

Substance	tolerogenic cells (Foxp3+ CD4+ T cells) in a population of OT-II cells [1]	induction of suppressive Foxp3+CD4+ T cells [2]	CD4+ IFN-γ+ MOG effector T cells [2] [%]	secreted IFN-γ in culture supernatants [3]	Foxp3 mRNA level (qRT-PCR, normalized to GAPDH) [4]	secretion of effector cytokine by Th1 cells (IFN-gamma) [5]	secretion of effector cytokine by Th17 cells (IL-17) [5]	proliferation of MOG-specific CD4 T cells ([3H]thymidine incorporation) [6]	IFN-γ production of MOG-reactive effector cells [7]	also measured
OVA: ovalbumin, control antigen [reference compound]	did not induce tolerogenic cells above background levels	–	–	–	–	–	–	–	–	–
α-2-6-Sia-MOG35-55: MOG 35-55 peptide with N-terminal cysteine covalently attached via MPBH linker to 6′-sialyl-N-acetyllactosamine (Neu5Ac(α)2-6Gal(β)1-4GlcNAc) (GPGYPIRALVGDEAELPCRIS; not fully specified (N-terminus); also: N-terminal Cys linked via MPBH to 6'-sialyl-LacNAc (Neu5Ac(α)2-6Gal(β)1-4GlcNAc); UniProt Q61885 35-55, looked up, fragment)	–	majority of the CD4 T cells co-express Foxp3	0.3	reduction	high levels	significantly reduced	significantly reduced	clear reduction of proliferation	suppressed	–
MEVGWYRPPFSRVVHLYRNGK [non-sialylated MOG35-55, reference compound]	–	not induced	3.5	significant amounts	hardly expressed	not observed	not observed	stimulate the proliferation	enhance	T-bet mRNA level (qRT-PCR, normalized to GAPDH) ([4]; FIG. 1D left panel): higher mRNA levels; effect on experimental autoimmune encephalomyelitis [8]: suppresses
α-2-6-Sia-OVA: OVA coupled to 6′-Sialyl-N-acetyllactosamine (6′-SLN)	–	–	–	–	–	–	–	–	–	immune tolerance against OVA ([1]; DCs exposed to the antigen): capable of inducing immune tolerance against OVA
sia-OVA: sia-2,3 and 2,6-conjugated ovalbumin	about 10%	–	–	–	–	–	–	–	–	tolerogenic cells (Foxp3+ CD4+ T cells) in a population of 2D2 cells [9]: did not induce tolerogenic cells above background levels
